Each block holds one compound with its values, some of them ahead of it.
What was measured:
Human TLR7/8 = system: T1, Human TLR7/8; experiment: Human PBMC cell-based assay, RNA-Ig (SL4-Ig) stimulus, cytokine ELISA; settings: Human PBMC IL-6 Inhibition (SL4-Ig Ligand); read-out: Human PBMC IC50
T1 construct: IC50; other: Hu PBMC; ligand RNA-Ig; analyte IL-6; analyte TNFα; ligand R848; IC50 against the RNA-Ig TLR7/8 stimulus; cytokine responses to RNA-Ig complexes in vitro; potency against the RNA-Ig TLR7/8 stimulus versus HCQ
Procedure: Briefly, 25 ml blood was diluted with 15 ml PBS (without Ca^2+, Mg^2+) in a 50 ml conical tube, and 12 ml Histopaque was underlaid using a spinal needle. Tubes were centrifuged for 45 minutes at 1200 rpm (350×g), and PBMC were collected from the buffy coat. Cells were then washed twice in PBS, and red blood cells were lysed by suspension in 5 ml ammonium chloride solution (1× Red Blood Cell Lysis Buffer, eBioscience) for 5 minutes at room temperature.
Antagonist compounds solubilized and serial diluted in 100% DMSO were added in triplicate to cells to yield a final concentration of 0.1% DMSO (v/v). Hydroxychloroquine (Acros Organics) solubilized and serial diluted in PBS was added in triplicate to cells. […] The resulting “RNA-Ig” stimulus was incubated at room temperature for 15-30 minutes before adding to cells. PBMC were incubated with the various TLR agonists for 20 hours at 37° C., 5% CO2. Cell culture supernatants were collected, and levels of various human cytokines were assessed as indicated by standard ELISA procedure according to the manufacturer's recommended protocol (BD Biosciences, Inc., San Diego, Calif.).

Mouse TLR7 [1] = molecular target: T2, Mouse TLR7 (Mus musculus, UniProt P58681); experiment: Short-term in vivo (STIV) assay: plasma IL-6 after s.c. R848
T2 construct: endogenous in cells; host or cells: female BALB/c mice, in vivo
T2 sequence (P58681 27-1050): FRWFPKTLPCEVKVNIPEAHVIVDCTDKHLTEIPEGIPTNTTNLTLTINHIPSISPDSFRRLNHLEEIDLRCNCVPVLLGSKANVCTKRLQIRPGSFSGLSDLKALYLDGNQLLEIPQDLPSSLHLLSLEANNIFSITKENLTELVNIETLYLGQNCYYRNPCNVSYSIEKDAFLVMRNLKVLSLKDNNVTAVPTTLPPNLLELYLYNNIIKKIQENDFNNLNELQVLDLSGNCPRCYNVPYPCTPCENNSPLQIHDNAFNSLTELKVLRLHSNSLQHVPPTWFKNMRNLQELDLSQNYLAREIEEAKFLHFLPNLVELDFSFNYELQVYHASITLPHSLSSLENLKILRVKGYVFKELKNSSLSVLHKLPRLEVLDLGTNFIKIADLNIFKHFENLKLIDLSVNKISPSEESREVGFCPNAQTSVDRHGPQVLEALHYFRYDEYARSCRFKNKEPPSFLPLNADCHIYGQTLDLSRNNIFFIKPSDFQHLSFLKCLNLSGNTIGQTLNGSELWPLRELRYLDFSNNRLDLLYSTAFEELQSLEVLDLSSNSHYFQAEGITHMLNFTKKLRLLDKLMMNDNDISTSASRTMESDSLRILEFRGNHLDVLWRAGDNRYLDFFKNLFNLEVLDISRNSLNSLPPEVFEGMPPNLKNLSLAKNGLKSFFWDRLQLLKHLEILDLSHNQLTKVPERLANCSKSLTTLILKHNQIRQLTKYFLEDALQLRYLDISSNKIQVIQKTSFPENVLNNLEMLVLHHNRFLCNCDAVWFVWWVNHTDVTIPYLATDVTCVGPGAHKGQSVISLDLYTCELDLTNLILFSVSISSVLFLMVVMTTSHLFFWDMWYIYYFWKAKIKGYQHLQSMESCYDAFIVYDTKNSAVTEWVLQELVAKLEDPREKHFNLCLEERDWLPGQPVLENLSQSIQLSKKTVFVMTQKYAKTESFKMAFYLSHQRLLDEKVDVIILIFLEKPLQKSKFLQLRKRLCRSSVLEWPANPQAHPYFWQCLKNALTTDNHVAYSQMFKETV
Procedure: Figure Legend: Female BALB/c mice were dosed by oral gavage with Vehicle alone (0.5% aqueous methyl-cellulose) or compound ER-892887 formulated in Vehicle at 100 mg/kg or 300 mg/kg. At 13 or 24 hours following oral dosing, mice were injected subcutaneously with 15 ug R848 to stimulate TLR7. Blood plasma was collected by cardiac puncture, and the IL-6 level at 1.5 hours after TLR7 stimulation was then assessed by standard ELISA procedure. Percent suppression indicated is relative to IL-6 induction following Vehicle control dosing. Statistical significance was determined by Mann-Whitney test.
To assess compound potency in vivo against mouse TLR7, a short-term in vivo (STIV) assay was utilized. Briefly, mice were orally dosed with compounds and at various time points afterwards were injected subcutaneously with agonist R848 to stimulate TLR7. The plasma IL-6 level following R848 stimulation was then measured by ELISA to assess compound potency and duration-of-action. […] Therefore, the activity of compounds in the STIV assay can be confidently attributed to their modulation of the TLR7 pathway. A single oral dose of ER-892887 at 300 mg/kg suppresses the R848/TLR7/IL-6 pathway in vivo by 80-90% for at least 24 hours (see FIG. 1).
Six to eight week old female BALB/c mice (Jackson Labs, Bar Harbor, Me.) were dosed by oral gavage in 200 ul volume with antagonist compounds formulated in 0.5% aqueous methyl-cellulose (Sigma, St. Louis, Mo.). At various time points afterwards, mice were injected subcutaneously (s.c.) in 100 ul volume with 15 ug R848 (Resiquimod; GLSynthesis, Worcester, Mass.) to stimulate TLR7. Blood plasma was collected by cardiac puncture, and levels of IL-6 at 1.5 hours after TLR7 stimulation were then assessed by standard ELISA procedure according to the manufacturer's recommended protocol (R&D Systems).

Mouse TLR7 [2] = molecular target: T2, Mouse TLR7; experiment: Mouse spleen cell-based assay, R848 stimulus, IL-6 ELISA; settings: Mouse Splenocyte IL-6 Inhibition (R848 Ligand); read-out: Mouse Splenocyte IC50
Procedure: Spleens were harvested from female BALB/c mice (Jackson Labs, Bar Harbor, Me.) euthanized by CO2. A single cell suspension was obtained by passing spleens through a 40 μm nylon cell strainer. Cells were washed twice with 50 ml PBS (Mediatech, Inc., Manassas, Va.) and red blood cells were lysed in 5 ml RBC Lysis buffer (eBioscience, Inc., San Diego, Calif.) for 5 minutes at room temperature. Cells were washed twice more in PBS and finally resuspended in supplemented RPMI-1640 at 2.5×10^6 cells/ml. Cells were plated at 100 μl/well (2.5×10^5 cells/well) in 96-well tissue culture treated plates (Falcon). Serial dilutions of compounds solubilized in 100% DMSO were added in triplicate to cells to yield a final concentration of 0.1% DMSO. Cells were incubated with compound for 30 minutes at 37° C., 5% CO2 before adding 100 μl/well of 740 nM R848 (Resiquimod; GLSynthesis, Worcester, Mass.) in complete media for a final concentration of 370 nM R848. Cells were incubated for 20 hours at 37° C., 5% CO2. Culture supernatants were collected, and levels of IL-6 were assessed by standard ELISA procedure according to the manufacturer's recommended protocol (BD Biosciences, Inc., San Diego, Calif.).

[3] = time point 6 hr, dose 33 mg/kg oral
[4] = time point 6 hr, dose 100 mg/kg oral
[5] = time point 6 hr, dose 300 mg/kg oral
[6] = time point 13 hr, dose 33 mg/kg oral
[7] = time point 13 hr, dose 100 mg/kg oral
[8] = time point 13 hr, dose 300 mg/kg oral
[9] = time point 24 hr, dose 100 mg/kg oral
[10] = time point 24 hr, dose 300 mg/kg oral

- IC50 (Human TLR7/8): 64 nM
Compound: COc1ccc(C2CC(C(F)(F)F)n3nc(-c4ccc(C(=O)N5CCNCC5)nc4)cc3N2)cc1OC (centres unmarked) [ER-896133]

- IC50 (Human TLR7/8): 101 nM
Compound: COc1ccc(C2CC(C(F)(F)F)n3nc(C4CCNCC4)cc3N2)cc1OC (centres unmarked) [ER-887084]

- IC50 (Human TLR7/8): 27 nM
Compound: COc1ccc(C2CC(C(F)(F)F)n3nc(-c4ccc(C(=O)NC5CCNC5)nc4)cc3N2)cc1OC (centres unmarked) [ER-895810]

- IC50 (Human TLR7/8): 18 nM
Compound: COc1ccc(C2CC(C(F)(F)F)n3nc(-c4ccc(C(=O)NC5CCCNC5)nc4)cc3N2)cc1OC (centres unmarked) [ER-896135]

- IC50 (Human TLR7/8): 111 nM
Compound: COc1ccc(C2CC(C(F)(F)F)n3nc(-c4cccc(C(=O)NC5CCNC5)c4)cc3N2)cc1OC (centres unmarked) [ER-895811]

- IC50 (Human TLR7/8): 49 nM
Compound: COc1ccc(C2CC(C(F)(F)F)n3nc(C(=O)N4CCNCC4)cc3N2)cc1OC (centres unmarked) [ER-896452]

- IC50 (Human TLR7/8): 122 nM
Compound: COc1ccc(C2CC(C(F)(F)F)n3nc(-c4cccc(C(=O)N5CCNCC5)c4)cc3N2)cc1OC (centres unmarked) [ER-896388]

- IC50 (Human TLR7/8): 173 nM
- % Suppression vs. Vehicle (Mouse TLR7 [1]; time point 3 hr, dose 33 mg/kg oral): 90%
- % Suppression vs. Vehicle (Mouse TLR7 [1]; time point 3 hr, dose 100 mg/kg oral): 98%
- % Suppression vs. Vehicle (Mouse TLR7 [1]; time point 3 hr, dose 300 mg/kg oral): 99%
- % Suppression vs. Vehicle (Mouse TLR7 [1]; [3]): 42%
- % Suppression vs. Vehicle (Mouse TLR7 [1]; [4]): 81%
- % Suppression vs. Vehicle (Mouse TLR7 [1]; [5]): 96%
- % Suppression vs. Vehicle (Mouse TLR7 [1]; [6]): 0%
- % Suppression vs. Vehicle (Mouse TLR7 [1]; [7]): 7%
- % Suppression vs. Vehicle (Mouse TLR7 [1]; [8]): 50%
Compound: COc1ccc([C@@H]2C[C@H](C(F)(F)F)n3nc(C4CCNCC4)cc3N2)cc1OC [ER-885681]

- IC50 (Human TLR7/8): 12 nM
Compound: COc1ccc(C2CC(C(F)(F)F)n3nc(-c4ccc(C(=O)NC5CCNCC5)nc4)cc3N2)cc1OC (centres unmarked) [ER-896134]

- IC50 (Human TLR7/8): 23 nM
- IC50 (Mouse TLR7 [2]): 270 nM
- % Suppression vs. Vehicle (Mouse TLR7 [1]; [3]): 92%
- % Suppression vs. Vehicle (Mouse TLR7 [1]; [6]): 0%
- % Suppression vs. Vehicle (Mouse TLR7 [1]; [7]): 18%
- % Suppression vs. Vehicle (Mouse TLR7 [1]; [8]): 90%
- % Suppression vs. Vehicle (Mouse TLR7 [1]; [9]): 0%
- % Suppression vs. Vehicle (Mouse TLR7 [1]; [10]): 60%
Compound: COc1ccc([C@H]2C[C@@H](C(F)F)n3nc(-c4ccc(C(=O)N5CCNCC5)cc4)cc3N2)cc1OC [ER-895303]

- IC50 (Human TLR7/8): 357 nM
Compound: COc1ccc([C@H]2C[C@@H](C(F)(F)F)n3nc(C4CCNCC4)cc3N2)cc1OC [ER-885682]

- IC50 (Human TLR7/8): 4460 nM
- IC50 (Mouse TLR7 [2]): 3920 nM
Compound: Cc1nn(C)cc1[C@@H]1C[C@H](C(F)(F)F)n2nc(-c3ccc4nn(C)cc4c3)cc2N1 [ER-893990]

- IC50 (Human TLR7/8): 25 nM
- IC50 (Mouse TLR7 [2]): 120 nM
- % Suppression vs. Vehicle (Mouse TLR7 [1]; [3]): 93%
- % Suppression vs. Vehicle (Mouse TLR7 [1]; [4]): 99%
- % Suppression vs. Vehicle (Mouse TLR7 [1]; [5]): 99%
- % Suppression vs. Vehicle (Mouse TLR7 [1]; [6]): 14%
- % Suppression vs. Vehicle (Mouse TLR7 [1]; [7]): 16%
- % Suppression vs. Vehicle (Mouse TLR7 [1]; [8]): 91%
- % Suppression vs. Vehicle (Mouse TLR7 [1]; time point 24 hr, dose 33 mg/kg oral): 30%
- % Suppression vs. Vehicle (Mouse TLR7 [1]; [9]): 0%
- % Suppression vs. Vehicle (Mouse TLR7 [1]; [10]): 37%
Compound: COc1ccc([C@@H]2C[C@H](C(F)F)n3nc(-c4ccc(C(=O)N5CCNCC5)cc4)cc3N2)cc1OC [ER-895302]

Compound: 5-(3,4-dimethoxyphenyl)-2-(6-methyl-1,2,3,6-tetrahydropyridin-4-yl)-7-(trifluoromethyl)-4,5,6,7-tetrahydropyrazolo[1,5-a]pyrimidine hydrochloride and 5-(3,4-dimethoxyphenyl)-2-(2-methyl-1,2,3,6-tetrahydropyridin-4-yl)-7-(trifluoromethyl)-4,5,6,7-tetrahydropyrazolo[1,5-a]pyrimidine hydrochloride [ER-896993]
- IC50 (Human TLR7/8): 38 nM

- IC50 (Human TLR7/8): 43 nM
- IC50 (Mouse TLR7 [2]): 420 nM
Compound: COc1ccc(C2CC(C(F)F)n3nc(-c4ccc(C(=O)N5CCNCC5)cc4)cc3N2)cc1OC (racemic) [ER-894466]

- IC50 (Human TLR7/8): 21 nM
Compound: COc1ccc(C2CC(C(F)(F)F)n3nc(-c4ccc(C(=O)NC5CCNC5)nc4)cc3N2)cc1OC (centres unmarked) [ER-895809]

From US9126999B2, “Tetrahydropyrazolopyrimidine compounds” (EISAI R&D MANAGEMENT CO., LTD., priority 2012, dated 2015)
